What all share (conditions): Compound concentration 1000.0 nM
Assay [1] deals with ALK tyrosine kinase receptor (Homo sapiens), Q9UM73 [L1196M].
Assay [2] has as its target T1, Cytoplasmic tyrosine-protein kinase BMX (Homo sapiens) (UniProt P51813).
T1 sequence (whole entry): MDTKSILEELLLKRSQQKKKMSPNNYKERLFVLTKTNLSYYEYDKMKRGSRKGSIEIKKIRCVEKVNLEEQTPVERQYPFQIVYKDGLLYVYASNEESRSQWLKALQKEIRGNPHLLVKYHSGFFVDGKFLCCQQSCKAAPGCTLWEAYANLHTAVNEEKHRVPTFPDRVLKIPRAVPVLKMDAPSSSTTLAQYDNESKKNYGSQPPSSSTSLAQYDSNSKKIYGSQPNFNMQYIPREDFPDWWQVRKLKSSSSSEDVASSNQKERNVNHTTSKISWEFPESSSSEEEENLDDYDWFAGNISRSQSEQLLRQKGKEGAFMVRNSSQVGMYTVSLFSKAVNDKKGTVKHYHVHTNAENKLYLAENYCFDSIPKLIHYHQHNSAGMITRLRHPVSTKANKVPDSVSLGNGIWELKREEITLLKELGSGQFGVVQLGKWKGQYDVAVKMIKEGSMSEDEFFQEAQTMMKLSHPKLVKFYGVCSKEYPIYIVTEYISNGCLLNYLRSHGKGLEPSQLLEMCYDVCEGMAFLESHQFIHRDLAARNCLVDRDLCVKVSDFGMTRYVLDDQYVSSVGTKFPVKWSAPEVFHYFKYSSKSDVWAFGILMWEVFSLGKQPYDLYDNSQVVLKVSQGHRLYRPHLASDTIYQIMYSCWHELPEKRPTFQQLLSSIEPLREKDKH

The target of assay [3] is Mitogen-activated protein kinase 7 (Homo sapiens) (UniProt Q13164).
For assay [4], the target named is T2, Beta-adrenergic receptor kinase 1 (Homo sapiens) (UniProt P25098).
T2 sequence (whole entry): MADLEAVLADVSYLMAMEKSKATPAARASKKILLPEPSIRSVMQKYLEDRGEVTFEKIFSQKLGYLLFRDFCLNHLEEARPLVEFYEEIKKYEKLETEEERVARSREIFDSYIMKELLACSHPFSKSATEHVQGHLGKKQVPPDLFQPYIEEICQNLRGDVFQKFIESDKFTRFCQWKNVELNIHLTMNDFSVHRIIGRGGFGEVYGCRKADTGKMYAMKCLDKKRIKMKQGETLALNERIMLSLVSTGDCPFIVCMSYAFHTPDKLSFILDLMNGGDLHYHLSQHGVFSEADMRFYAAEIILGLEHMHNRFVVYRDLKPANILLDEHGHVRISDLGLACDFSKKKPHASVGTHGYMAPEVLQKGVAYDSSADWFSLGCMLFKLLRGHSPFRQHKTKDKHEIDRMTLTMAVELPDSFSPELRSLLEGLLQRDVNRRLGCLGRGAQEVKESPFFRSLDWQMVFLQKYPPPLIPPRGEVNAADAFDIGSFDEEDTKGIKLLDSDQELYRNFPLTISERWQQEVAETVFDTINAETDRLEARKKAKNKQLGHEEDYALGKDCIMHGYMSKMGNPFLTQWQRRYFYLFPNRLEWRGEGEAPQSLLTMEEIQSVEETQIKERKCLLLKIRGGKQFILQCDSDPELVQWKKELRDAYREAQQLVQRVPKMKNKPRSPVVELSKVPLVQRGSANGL

In assay [5] the target is Serine/threonine-protein kinase 38-like (Homo sapiens) (UniProt Q9Y2H1).
In assay [6] the target is Ribosomal protein S6 kinase alpha-5 (Homo sapiens, UniProt O75582).
In assay [7] the target is Ribosomal protein S6 kinase alpha-6 (Homo sapiens) (UniProt Q9UK32).
The target of assay [8] is T3, Serine/threonine-protein kinase TAO2 (Homo sapiens) (UniProt Q9UL54).
T3 sequence (whole entry): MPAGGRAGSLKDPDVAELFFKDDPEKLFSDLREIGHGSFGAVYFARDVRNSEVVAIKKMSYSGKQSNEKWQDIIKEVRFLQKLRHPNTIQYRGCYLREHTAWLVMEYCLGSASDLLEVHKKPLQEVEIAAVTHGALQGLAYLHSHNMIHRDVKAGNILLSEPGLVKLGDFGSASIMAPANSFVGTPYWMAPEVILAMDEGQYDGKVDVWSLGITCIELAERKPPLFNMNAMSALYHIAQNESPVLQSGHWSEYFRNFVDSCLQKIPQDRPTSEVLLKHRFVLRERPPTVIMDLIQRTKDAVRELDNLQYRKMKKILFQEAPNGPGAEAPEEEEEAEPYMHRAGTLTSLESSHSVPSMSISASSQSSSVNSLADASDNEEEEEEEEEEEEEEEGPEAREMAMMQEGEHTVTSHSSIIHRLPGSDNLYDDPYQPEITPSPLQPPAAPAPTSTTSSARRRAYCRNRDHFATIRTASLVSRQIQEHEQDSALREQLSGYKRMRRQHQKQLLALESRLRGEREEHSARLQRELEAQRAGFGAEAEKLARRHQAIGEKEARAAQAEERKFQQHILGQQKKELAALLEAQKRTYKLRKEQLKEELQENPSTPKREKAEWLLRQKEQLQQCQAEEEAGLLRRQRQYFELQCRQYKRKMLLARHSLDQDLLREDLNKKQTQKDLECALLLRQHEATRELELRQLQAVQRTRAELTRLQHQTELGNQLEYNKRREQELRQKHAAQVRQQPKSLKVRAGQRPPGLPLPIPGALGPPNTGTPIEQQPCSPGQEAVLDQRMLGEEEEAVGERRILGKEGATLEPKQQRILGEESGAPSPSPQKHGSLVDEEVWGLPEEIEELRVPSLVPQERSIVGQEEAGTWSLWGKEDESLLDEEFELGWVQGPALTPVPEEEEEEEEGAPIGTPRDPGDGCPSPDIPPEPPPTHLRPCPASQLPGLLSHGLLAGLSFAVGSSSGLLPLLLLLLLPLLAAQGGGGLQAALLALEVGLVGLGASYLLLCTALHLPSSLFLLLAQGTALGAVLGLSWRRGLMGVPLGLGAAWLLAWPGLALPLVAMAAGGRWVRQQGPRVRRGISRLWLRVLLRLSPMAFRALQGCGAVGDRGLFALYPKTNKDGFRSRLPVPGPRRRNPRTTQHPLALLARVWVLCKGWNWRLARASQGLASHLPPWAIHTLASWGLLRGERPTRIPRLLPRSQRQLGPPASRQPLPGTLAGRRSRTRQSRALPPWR

For assay [9], the target named is High affinity nerve growth factor receptor (Homo sapiens) (UniProt P04629).
For assay [10], the target named is Serine/threonine-protein kinase 32B (Homo sapiens) (UniProt Q9NY57).

Structures are written as SMILES.

Sequence of Serine/threonine-protein kinase 32B (Homo sapiens) (Q9NY57 whole entry): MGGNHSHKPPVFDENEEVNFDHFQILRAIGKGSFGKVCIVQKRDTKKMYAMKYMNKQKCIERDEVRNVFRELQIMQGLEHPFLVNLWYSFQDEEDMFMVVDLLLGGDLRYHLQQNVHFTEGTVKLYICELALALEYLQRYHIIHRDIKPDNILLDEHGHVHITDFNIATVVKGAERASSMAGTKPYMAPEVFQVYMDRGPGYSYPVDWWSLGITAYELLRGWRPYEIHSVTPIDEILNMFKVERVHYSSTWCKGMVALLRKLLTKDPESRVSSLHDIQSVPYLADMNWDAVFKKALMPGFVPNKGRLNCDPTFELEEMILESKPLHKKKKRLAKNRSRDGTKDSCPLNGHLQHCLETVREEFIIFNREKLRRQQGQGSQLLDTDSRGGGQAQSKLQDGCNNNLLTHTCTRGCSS
Sequence of Ribosomal protein S6 kinase alpha-5 (O75582 whole entry, looked up): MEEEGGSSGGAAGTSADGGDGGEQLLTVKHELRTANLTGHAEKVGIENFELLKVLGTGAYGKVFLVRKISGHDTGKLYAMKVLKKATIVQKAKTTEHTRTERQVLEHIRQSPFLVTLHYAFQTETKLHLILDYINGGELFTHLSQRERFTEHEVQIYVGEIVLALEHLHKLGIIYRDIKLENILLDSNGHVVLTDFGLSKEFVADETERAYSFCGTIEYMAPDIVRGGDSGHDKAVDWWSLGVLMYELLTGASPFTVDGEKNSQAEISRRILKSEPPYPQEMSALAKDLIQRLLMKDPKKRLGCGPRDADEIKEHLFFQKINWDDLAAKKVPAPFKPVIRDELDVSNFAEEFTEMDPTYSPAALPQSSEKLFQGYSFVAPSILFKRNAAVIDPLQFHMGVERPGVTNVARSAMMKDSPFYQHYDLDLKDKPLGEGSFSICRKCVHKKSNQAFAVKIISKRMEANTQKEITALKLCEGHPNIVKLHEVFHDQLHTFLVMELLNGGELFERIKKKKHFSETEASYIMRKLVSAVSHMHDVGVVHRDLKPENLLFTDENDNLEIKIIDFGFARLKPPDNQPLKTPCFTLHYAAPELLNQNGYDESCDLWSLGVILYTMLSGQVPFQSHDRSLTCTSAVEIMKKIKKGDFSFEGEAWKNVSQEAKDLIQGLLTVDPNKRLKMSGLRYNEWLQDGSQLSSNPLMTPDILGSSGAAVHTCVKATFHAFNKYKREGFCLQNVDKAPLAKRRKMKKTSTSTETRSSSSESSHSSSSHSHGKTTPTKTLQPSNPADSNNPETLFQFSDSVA
Sequence of ALK tyrosine kinase receptor (Homo sapiens), Q9UM73 [L1196M] (Q9UM73 whole entry L1196M, looked up): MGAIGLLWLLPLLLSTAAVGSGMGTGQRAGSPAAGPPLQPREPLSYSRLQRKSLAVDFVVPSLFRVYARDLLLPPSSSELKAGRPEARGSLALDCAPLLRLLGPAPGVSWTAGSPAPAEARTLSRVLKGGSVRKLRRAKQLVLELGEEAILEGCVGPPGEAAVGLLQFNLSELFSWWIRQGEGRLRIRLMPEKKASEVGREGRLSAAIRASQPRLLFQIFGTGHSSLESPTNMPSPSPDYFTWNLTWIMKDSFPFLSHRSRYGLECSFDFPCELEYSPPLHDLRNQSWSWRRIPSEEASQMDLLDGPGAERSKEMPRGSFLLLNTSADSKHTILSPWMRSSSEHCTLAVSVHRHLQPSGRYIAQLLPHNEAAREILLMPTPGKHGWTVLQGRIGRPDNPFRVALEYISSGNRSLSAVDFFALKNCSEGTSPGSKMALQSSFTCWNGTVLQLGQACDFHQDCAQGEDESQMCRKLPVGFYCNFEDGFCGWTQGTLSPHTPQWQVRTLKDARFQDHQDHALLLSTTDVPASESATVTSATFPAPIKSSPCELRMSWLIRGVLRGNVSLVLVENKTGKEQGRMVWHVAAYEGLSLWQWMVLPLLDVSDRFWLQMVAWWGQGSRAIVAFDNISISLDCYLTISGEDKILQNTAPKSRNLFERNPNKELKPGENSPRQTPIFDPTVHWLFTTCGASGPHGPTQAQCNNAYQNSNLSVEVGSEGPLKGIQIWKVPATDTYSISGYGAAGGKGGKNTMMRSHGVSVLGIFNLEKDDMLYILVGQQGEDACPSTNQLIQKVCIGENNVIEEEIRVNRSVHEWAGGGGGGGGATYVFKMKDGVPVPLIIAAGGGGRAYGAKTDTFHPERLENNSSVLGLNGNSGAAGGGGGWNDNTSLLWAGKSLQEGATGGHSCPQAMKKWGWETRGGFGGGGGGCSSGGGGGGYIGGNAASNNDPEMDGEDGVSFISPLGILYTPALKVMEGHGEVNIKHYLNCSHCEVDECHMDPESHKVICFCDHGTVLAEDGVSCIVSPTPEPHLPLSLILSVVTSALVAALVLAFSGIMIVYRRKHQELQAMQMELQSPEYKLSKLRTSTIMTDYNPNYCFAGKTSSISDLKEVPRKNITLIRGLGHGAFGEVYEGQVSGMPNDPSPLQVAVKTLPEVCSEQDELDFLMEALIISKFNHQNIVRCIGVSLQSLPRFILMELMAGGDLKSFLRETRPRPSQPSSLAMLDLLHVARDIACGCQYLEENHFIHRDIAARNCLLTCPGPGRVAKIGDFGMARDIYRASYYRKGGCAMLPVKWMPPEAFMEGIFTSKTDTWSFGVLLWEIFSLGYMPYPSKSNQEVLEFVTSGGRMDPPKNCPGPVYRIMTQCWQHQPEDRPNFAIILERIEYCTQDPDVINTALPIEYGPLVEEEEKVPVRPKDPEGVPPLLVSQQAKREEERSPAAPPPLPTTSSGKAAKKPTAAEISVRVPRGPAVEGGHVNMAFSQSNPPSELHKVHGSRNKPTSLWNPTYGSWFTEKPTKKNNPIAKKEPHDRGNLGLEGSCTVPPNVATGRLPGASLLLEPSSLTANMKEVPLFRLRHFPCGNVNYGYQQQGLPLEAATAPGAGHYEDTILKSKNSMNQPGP
Sequence of Serine/threonine-protein kinase 38-like (Homo sapiens) (Q9Y2H1 2-464 limits assumed): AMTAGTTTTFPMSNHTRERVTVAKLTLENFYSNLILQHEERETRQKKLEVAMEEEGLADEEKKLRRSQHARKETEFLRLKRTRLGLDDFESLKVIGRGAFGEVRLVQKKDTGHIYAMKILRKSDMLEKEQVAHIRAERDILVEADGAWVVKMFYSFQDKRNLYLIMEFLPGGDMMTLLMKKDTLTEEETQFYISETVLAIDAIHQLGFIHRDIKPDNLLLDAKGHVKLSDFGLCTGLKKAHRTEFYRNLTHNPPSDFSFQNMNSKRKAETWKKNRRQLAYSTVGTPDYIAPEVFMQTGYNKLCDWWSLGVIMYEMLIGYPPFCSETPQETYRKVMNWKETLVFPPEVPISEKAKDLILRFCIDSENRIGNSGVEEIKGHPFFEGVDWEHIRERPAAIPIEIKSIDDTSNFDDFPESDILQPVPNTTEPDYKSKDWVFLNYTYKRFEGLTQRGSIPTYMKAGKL
Sequence of Ribosomal protein S6 kinase alpha-6 (Homo sapiens) (Q9UK32 whole entry): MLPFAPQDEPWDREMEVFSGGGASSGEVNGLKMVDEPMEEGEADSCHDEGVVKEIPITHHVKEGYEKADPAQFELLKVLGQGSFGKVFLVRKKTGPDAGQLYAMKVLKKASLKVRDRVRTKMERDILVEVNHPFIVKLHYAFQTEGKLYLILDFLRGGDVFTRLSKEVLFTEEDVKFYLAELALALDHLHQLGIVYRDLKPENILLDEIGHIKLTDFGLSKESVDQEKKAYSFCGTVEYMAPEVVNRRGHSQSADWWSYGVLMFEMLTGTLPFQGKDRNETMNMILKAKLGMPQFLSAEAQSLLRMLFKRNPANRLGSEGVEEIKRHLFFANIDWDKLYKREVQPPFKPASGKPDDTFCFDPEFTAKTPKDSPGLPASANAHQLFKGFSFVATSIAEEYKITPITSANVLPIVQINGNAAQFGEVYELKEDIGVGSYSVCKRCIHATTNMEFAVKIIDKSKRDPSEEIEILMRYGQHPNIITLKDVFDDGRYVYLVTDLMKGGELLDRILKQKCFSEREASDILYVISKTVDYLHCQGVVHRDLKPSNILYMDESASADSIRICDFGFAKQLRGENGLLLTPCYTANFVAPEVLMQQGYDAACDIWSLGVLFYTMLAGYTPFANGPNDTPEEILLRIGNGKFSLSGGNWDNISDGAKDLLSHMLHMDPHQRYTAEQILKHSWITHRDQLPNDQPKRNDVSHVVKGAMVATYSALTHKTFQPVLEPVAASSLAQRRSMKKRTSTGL
Sequence of High affinity nerve growth factor receptor (Homo sapiens) (P04629 33-796 limits assumed): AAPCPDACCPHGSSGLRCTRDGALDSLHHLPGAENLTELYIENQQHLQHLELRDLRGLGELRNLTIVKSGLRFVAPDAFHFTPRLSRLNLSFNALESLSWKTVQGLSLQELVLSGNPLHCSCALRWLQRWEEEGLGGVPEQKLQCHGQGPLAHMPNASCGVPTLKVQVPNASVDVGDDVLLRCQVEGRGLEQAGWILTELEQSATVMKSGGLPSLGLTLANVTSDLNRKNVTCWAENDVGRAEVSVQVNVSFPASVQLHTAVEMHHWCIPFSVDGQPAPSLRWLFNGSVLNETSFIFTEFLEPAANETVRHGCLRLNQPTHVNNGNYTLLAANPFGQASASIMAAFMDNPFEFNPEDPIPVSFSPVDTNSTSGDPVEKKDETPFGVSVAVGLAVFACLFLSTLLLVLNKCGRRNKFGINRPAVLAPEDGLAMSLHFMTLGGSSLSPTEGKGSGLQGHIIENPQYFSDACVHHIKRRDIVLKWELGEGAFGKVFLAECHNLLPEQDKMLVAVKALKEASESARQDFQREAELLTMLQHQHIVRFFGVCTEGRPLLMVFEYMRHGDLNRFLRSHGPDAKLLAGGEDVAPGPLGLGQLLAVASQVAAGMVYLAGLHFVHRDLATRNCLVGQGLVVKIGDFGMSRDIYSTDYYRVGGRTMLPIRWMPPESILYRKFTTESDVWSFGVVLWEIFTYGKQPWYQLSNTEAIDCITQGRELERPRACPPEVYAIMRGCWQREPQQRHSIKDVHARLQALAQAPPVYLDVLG

As for `CC1=C(C#N)C(c2ccc3c(c2)c(NC(=O)c2ccccc2C)nn3C)C(C#N)=C(C)N1` [BAY-974], the residual activity in [1] is 80%; in assay [2], 85%; in [3] it was 100%; in assay [4], 91%; in assay [5], 98%; in assay [6], 87%. Also, the residual activity in assay [7] was 100%; in assay [8], 70%; in [9], 77%; in [10], 100%.
In the case of `CCc1ccccc1C(=O)Nc1n[nH]c2c(C)c(F)c(C3C(C#N)=C(C)N(C)C(C)=C3C#N)cc12` [BAY-3827], the residual activity in assay [1] is 83%; in assay [2], 96%; in assay [3], 86%; in assay [4], 100%; in assay [5], 82%; in [6], 90%. For the same compound, the residual activity was 2.9% in [7], 96% in assay [8], 97% in [9] and 98% in assay [10].

The values above are taken from ChEMBL document CHEMBL4507319 (2021).
